Active and inactive are the calls of the source. How the calls were made is not given here.
System: CCRIS mutagenicity, Ames/micronucleus/aberration tests
Assay: CCRIS mutagenicity studies
[1] = Test System: AMES SALMONELLA TYPHIMURIUM, Strain/Indicator: TA98, Metabolic Activation: NONE, Method: STANDARD PLATE
[2] = Test System: AMES SALMONELLA TYPHIMURIUM, Strain/Indicator: TA98, Metabolic Activation: NONE, Method: PREINCUBATION
[3] = Test System: AMES SALMONELLA TYPHIMURIUM, Strain/Indicator: TA100, Metabolic Activation: NONE, Method: PREINCUBATION

Compound: CN[C@H]1[C@@H](O[C@@H]2C3CC#CC4O[C@@]4(C4COC(=O)O4)C#CC3=C[C@H]2OC(=O)c2c(O)ccc3c(C)cc(OC)cc23)O[C@H](C)[C@H](O)[C@@H]1O (some centres not stated)
- mutagenic call [1]: inactive; negative
- mutagenic call (Test System: AMES SALMONELLA TYPHIMURIUM, Strain/Indicator: TA100, Metabolic Activation: NONE, Method: STANDARD PLATE): inactive; negative
- mutagenic call (Test System: CHINESE HAMSTER OVARY, Strain/Indicator: CHO-D422 (APRT)/8-AZAADENINE, Metabolic Activation: NONE): active; positive
- mutagenic call (Test System: CHINESE HAMSTER OVARY, Strain/Indicator: CHO-K1/6-THIOGUANINE, Metabolic Activation: NONE): active; positive
- mutagenic call (Test System: E. COLI, Strain/Indicator: WP2 (HCR), Metabolic Activation: NONE, Method: STANDARD PLATE): active; positive
- mutagenic call (Test System: E. COLI, Strain/Indicator: WP2, Metabolic Activation: NONE, Method: PREINCUBATION): active; positive
- mutagenic call (Test System: E. COLI, Strain/Indicator: WP2, Metabolic Activation: NONE, Method: SPOT): active; positive
- mutagenic call (Test System: E. COLI, Strain/Indicator: WP2 UVRA, Metabolic Activation: NONE, Method: PREINCUBATION): active; positive
- mutagenic call (Test System: E. COLI, Strain/Indicator: WP2 UVRA, Metabolic Activation: NONE, Method: SPOT): active; positive
- mutagenic call (Test System: UDS HUMAN CELLS, Strain/Indicator: THY INCORP (NON-S-PHASE), Metabolic Activation: NONE, Method: AUTORADIOGRAPHY): active; positive
- mutagenic call (Test System: UDS HUMAN CELLS, Strain/Indicator: THY INCORP (NON-S-PHASE), Metabolic Activation: NONE, Method: LIQUID SCINTILLATION COUNTING): active; positive

Compound: O=[N+]([O-])c1c(O)cc2c3c(cccc13)-c1ccccc1-2
- mutagenic call [1]: active; positive
- mutagenic call (Test System: AMES SALMONELLA TYPHIMURIUM, Strain/Indicator: TA98, Metabolic Activation: RAT, LIVER, S-9, AROCLOR 1254, Method: STANDARD PLATE): active; positive

Compound: CC(=O)Nc1ccc2ccc3ccc(O)c4ccc1c2c34
- mutagenic call (Test System: AMES SALMONELLA TYPHIMURIUM, Strain/Indicator: TA98(1,8-DNP6), Metabolic Activation: NONE, Method: STANDARD PLATE): inactive; negative
- mutagenic call (Test System: AMES SALMONELLA TYPHIMURIUM, Strain/Indicator: TA98(1,8-DNP6), Metabolic Activation: RAT, LIVER, S-9, AROCLOR 1254, Method: STANDARD PLATE): inactive; negative
- mutagenic call (Test System: AMES SALMONELLA TYPHIMURIUM, Strain/Indicator: YG1024, Metabolic Activation: NONE, Method: STANDARD PLATE): inactive; negative
- mutagenic call (Test System: AMES SALMONELLA TYPHIMURIUM, Strain/Indicator: YG1024, Metabolic Activation: RAT, LIVER, S-9, AROCLOR 1254, Method: STANDARD PLATE): inactive; negative

Compound: COc1cc(O)c2c(c1)C(=O)c1c(O)c(C)cc(O)c1C2=O
- mutagenic call (Test System: AMES SALMONELLA TYPHIMURIUM, Strain/Indicator: TA1537, Metabolic Activation: NONE, Method: STANDARD PLATE): inactive; negative
- mutagenic call (Test System: AMES SALMONELLA TYPHIMURIUM, Strain/Indicator: TA1537, Metabolic Activation: S-9, Method: STANDARD PLATE): active; positive

Compound: CC(=C/C=C/C(C)=C/C=C/C=C(C)/C=C/C=C(C)/C=C/C(=O)O)/C=C/C(=O)O
- mutagenic call (Test System: AMES SALMONELLA TYPHIMURIUM, Strain/Indicator: TA97, Metabolic Activation: NONE, Method: PREINCUBATION): inactive; negative
- mutagenic call (Test System: AMES SALMONELLA TYPHIMURIUM, Strain/Indicator: TA97, Metabolic Activation: S-9, Method: PREINCUBATION): inactive; negative
- mutagenic call (Test System: AMES SALMONELLA TYPHIMURIUM, Strain/Indicator: TA102, Metabolic Activation: NONE, Method: PREINCUBATION): inactive; negative
- mutagenic call (Test System: AMES SALMONELLA TYPHIMURIUM, Strain/Indicator: TA102, Metabolic Activation: S-9, Method: PREINCUBATION): inactive; negative

Compound: c1ccc2c(c1)Cc1ccc3ccc4ccccc4c3c1-2
- mutagenic call (Test System: AMES SALMONELLA TYPHIMURIUM, Strain/Indicator: TA100, Metabolic Activation: RAT, LIVER, S-9, AROCLOR 1254, Method: STANDARD PLATE): inactive; negative

Compound: Cc1ccc(Nc2ccc([N+](=O)[O-])cc2)cc1
- mutagenic call (Test System: AMES SALMONELLA TYPHIMURIUM, Strain/Indicator: TA98(NR), Metabolic Activation: NONE, Method: PREINCUBATION): inactive; negative
- mutagenic call [2]: active; positive
- mutagenic call (Test System: AMES SALMONELLA TYPHIMURIUM, Strain/Indicator: TA98, Metabolic Activation: RAT, LIVER, S-9, AROCLOR 1254, Method: PREINCUBATION): active; positive

Compound: CC(C)=CCC[C@](C)(O)[C@@H]1CC=C(C)CC1
- mutagenic call (End Point: AMES SALMONELLA TYPHIMURIUM, Test System: TA97A, Metabolic Activation: NONE, Method: STANDARD PLATE): inactive; negative
- mutagenic call (End Point: AMES SALMONELLA TYPHIMURIUM, Test System: TA97A, Metabolic Activation: RAT, LIVER, S-9, AROCLOR 1254, Method: STANDARD PLATE): inactive; negative
- mutagenic call (End Point: AMES SALMONELLA TYPHIMURIUM, Test System: TA98, Metabolic Activation: NONE, Method: STANDARD PLATE): inactive; negative
- mutagenic call (End Point: AMES SALMONELLA TYPHIMURIUM, Test System: TA98, Metabolic Activation: RAT, LIVER, S-9, AROCLOR 1254, Method: STANDARD PLATE): inactive; negative
- mutagenic call (End Point: AMES SALMONELLA TYPHIMURIUM, Test System: TA100, Metabolic Activation: NONE, Method: STANDARD PLATE): inactive; negative
- mutagenic call (End Point: AMES SALMONELLA TYPHIMURIUM, Test System: TA100, Metabolic Activation: RAT, LIVER, S-9, AROCLOR 1254, Method: STANDARD PLATE): inactive; negative
- mutagenic call (End Point: AMES SALMONELLA TYPHIMURIUM, Test System: TA1535, Metabolic Activation: NONE, Method: STANDARD PLATE): inactive; negative
- mutagenic call (End Point: AMES SALMONELLA TYPHIMURIUM, Test System: TA1535, Metabolic Activation: RAT, LIVER, S-9, AROCLOR 1254, Method: STANDARD PLATE): inactive; negative

Compound: CCCCN(C[C@H](CO)Cc1ccccc1)N=O
- mutagenic call [3]: inactive; negative
- mutagenic call (Test System: AMES SALMONELLA TYPHIMURIUM, Strain/Indicator: TA100, Metabolic Activation: RAT, LIVER, S-9, PCB, Method: PREINCUBATION): active; positive

Compound: CCCCCCCCCc1ccc(OP(=O)(Oc2ccccc2)Oc2ccccc2)cc1
- mutagenic call (Test System: AMES SALMONELLA TYPHIMURIUM, Strain/Indicator: TA97, Metabolic Activation: HAMSTER, LIVER, S-9, AROCLOR 1254 (5, 10 OR 30%), Method: PREINCUBATION): inactive; negative
- mutagenic call (Test System: AMES SALMONELLA TYPHIMURIUM, Strain/Indicator: TA97, Metabolic Activation: RAT, LIVER, S-9, AROCLOR 1254 (10%), Method: PREINCUBATION): inactive; negative
- mutagenic call (Test System: AMES SALMONELLA TYPHIMURIUM, Strain/Indicator: TA97, Metabolic Activation: RAT, LIVER, S-9, AROCLOR 1254 (30%), Method: PREINCUBATION): inactive; negative
- mutagenic call (Test System: AMES SALMONELLA TYPHIMURIUM, Strain/Indicator: TA98, Metabolic Activation: HAMSTER, LIVER, S-9, AROCLOR 1254 (10 OR 30%), Method: PREINCUBATION): inactive; negative
- mutagenic call [2]: inactive; negative
- mutagenic call (Test System: AMES SALMONELLA TYPHIMURIUM, Strain/Indicator: TA98, Metabolic Activation: RAT, LIVER, S-9, AROCLOR 1254 (10 OR 30%), Method: PREINCUBATION): inactive; negative
- mutagenic call (Test System: AMES SALMONELLA TYPHIMURIUM, Strain/Indicator: TA100, Metabolic Activation: HAMSTER, LIVER, S-9, AROCLOR 1254 (10 OR 30%), Method: PREINCUBATION): inactive; negative
- mutagenic call [3]: inactive; negative
- mutagenic call (Test System: AMES SALMONELLA TYPHIMURIUM, Strain/Indicator: TA100, Metabolic Activation: RAT, LIVER, S-9, AROCLOR 1254 (10 OR 30%), Method: PREINCUBATION): inactive; negative
- mutagenic call (Test System: AMES SALMONELLA TYPHIMURIUM, Strain/Indicator: TA1535, Metabolic Activation: HAMSTER, LIVER, S-9, AROCLOR 1254 (10 OR 30%), Method: PREINCUBATION): inactive; negative
- mutagenic call (Test System: AMES SALMONELLA TYPHIMURIUM, Strain/Indicator: TA1535, Metabolic Activation: NONE, Method: PREINCUBATION): inactive; negative
- mutagenic call (Test System: AMES SALMONELLA TYPHIMURIUM, Strain/Indicator: TA1535, Metabolic Activation: RAT, LIVER, S-9, AROCLOR 1254 (10 OR 30%), Method: PREINCUBATION): inactive; negative
- mutagenic call (Test System: AMES SALMONELLA TYPHIMURIUM, Strain/Indicator: TA1537, Metabolic Activation: HAMSTER, LIVER, S-9, AROCLOR 1254 (5, 10 OR 30%), Method: PREINCUBATION): inactive; negative
- mutagenic call (Test System: AMES SALMONELLA TYPHIMURIUM, Strain/Indicator: TA1537, Metabolic Activation: NONE, Method: PREINCUBATION): inactive; negative
- mutagenic call (Test System: AMES SALMONELLA TYPHIMURIUM, Strain/Indicator: TA1537, Metabolic Activation: RAT, LIVER, S-9, AROCLOR 1254 (5, 10 OR 30%), Method: PREINCUBATION): inactive; negative
